We go through one compound from patent US20070219213A1, “Use of Adrenergic N-Phenylpiperazine Antagonists, Pahrmaceutical Compositions Containning Them, and Methods of Preparing Them” (priority 2004, published 2007).

Where “and” joins values, the source holds several entries; their conditions need not be identical. Equal entries are not always repeated. Entries after “also recorded” stand apart in the source; their conditions may differ.

The target in test [1] is T1, alpha 1D adrenoceptor (rat aorta) (Rattus norvegicus, UniProt P23944).
T1 construct: from tissue; host or cells: rat aorta segments with endothelium
T1 sequence (P23944 1-561): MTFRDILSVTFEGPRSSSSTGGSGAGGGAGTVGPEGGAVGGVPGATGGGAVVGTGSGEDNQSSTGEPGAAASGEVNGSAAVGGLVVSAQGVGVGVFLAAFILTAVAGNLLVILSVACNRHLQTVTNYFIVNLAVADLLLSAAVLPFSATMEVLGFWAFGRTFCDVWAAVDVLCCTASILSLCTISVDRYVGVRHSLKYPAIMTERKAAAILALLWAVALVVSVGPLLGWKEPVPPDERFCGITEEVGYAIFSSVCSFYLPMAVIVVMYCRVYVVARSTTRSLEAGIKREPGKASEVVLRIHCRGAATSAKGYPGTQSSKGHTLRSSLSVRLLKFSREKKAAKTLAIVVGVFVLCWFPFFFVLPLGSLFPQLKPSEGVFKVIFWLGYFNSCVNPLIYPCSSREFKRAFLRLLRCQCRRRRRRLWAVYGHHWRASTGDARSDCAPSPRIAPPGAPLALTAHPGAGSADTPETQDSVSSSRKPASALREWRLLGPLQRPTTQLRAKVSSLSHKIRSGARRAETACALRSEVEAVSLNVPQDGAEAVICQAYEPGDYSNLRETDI
As to the kind of experiment: Vasoconstriction assay in rat aorta induced by norepinephrine. It is filed as cell-based. How it is done:
Vasoconstriction Assay in Mouse Aorta Induced By Norepinephrine
Aorta segments with endothelium (3 mm), withdrawn from young male rats (250-300 g), were placed in containers containing physiologic solution (NaCl 122 mM, KCl 5 mM, NaHCO3 15 mM, glucose 11.5 mM, MgCl2 1.2 mM, CaCl2 1.25 mM and KH2PO4 1.2 mM), kept at 37° C. under aeration with a mixture of 95% of O2 and 5% of CO2, and submitted to a pre-charge of 5 mN for 60 minutes. During this period, eventual tension adjustments were performed until the stabilization in 0.5 g, always with renewal with physiologic solution. Then, vasoconstriction was induced by 60 mM KCl solution, in each ring, to verify the viability of the organ on the day of experiment. The preparation was submitted to the contraction with norepinephrine (5×10^−5 M) and, then the rings were washed to reach the basal line (0% of vasoconstriction). The procedure was repeated until the obtainment of a constant curve. Later, a curve, using increasing concentrations of norepinephrine (3×10^−8-5×10^−5 M), was performed for each ring, as a positive control. The segments were washed to reach the basal line (0% of vasoconstriction) and incubated with the test compounds, individually, for 30 minutes. A second norepinephrine curve was performed and obtained data compared to the first control curve. […] The aorta rings were used once for each compound.
Determination of the LASSBio 772 Antagonist Potency (pKB) on the Vasoconstriction of Rabbit or Rat Thoracic Aorta.

For test [2], the system named is muscarinic cholinergic receptors. The test can be described thus: Cobaio (guinea pig) trachea contraction induced by carbacol. The format is cell-based. The following applies: 30 microM compound, carbacol 10 microM. An excerpt:
(§1) Selectivity Assay for Protein G-Coupled, Beta-Adrenergic, Muscarinic Cholinergic and Histaminergic Bioreceptors
(§2) Determination of the Inhibitory Potency (IC50) of LASSBio 772 on Vasoconstriction of the Cobaio (Guinea Pig) Trachea
(§3) Cobaios albinos from both sexes, weighing between 400 and 600 g were used in this experiment. The animals were sacrificed by cervical displacement and posterior bleed. Then, their tracheas were removed, kept in 5 microM indometacin added Krebs-Henseleit physiologic solution and oxygenated with carbogenic mixture (95% O2 and 5% CO2), proceeding the removal of the connective and adhered adipose tissue. From these tracheas were obtained segments with 4-6 rings, that are sectioned in the opposite side of the smooth musculature, originating strips used in the contractions assay (ARAKIDA et al., J. Pharmacol. Exper. Therap., 287: 633-639, 1998). […]
(§4) After the period, the organ is treated with agonists that will induce contractions. […] The tissue viability was evaluated by contraction induction with histamine 100 microM or carbacol 10 microM. […]
The compound LASSBio 772 was evaluated in the concentration of 30 microM as for its relaxation capability in comparison to contractions induced by carbacol, muscarinic cholinergic agonist, at a 10 microM concentration.

For a further test, the target named is T2, α1A (Oryctolagus cuniculus, UniProt O02824).
T2 construct: from tissue
T2 sequence (O02824 1-466): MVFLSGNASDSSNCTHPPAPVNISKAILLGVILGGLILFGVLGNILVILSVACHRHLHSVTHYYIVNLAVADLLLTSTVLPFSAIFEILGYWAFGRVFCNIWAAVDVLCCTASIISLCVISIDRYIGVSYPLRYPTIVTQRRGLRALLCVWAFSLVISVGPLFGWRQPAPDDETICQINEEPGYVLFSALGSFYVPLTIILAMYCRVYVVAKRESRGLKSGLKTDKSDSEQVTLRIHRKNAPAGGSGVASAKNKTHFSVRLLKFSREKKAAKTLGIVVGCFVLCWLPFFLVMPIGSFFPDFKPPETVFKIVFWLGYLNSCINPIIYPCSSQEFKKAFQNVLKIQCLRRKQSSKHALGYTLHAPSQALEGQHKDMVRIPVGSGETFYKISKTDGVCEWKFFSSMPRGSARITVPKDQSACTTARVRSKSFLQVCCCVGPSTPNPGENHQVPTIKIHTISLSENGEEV
As to the kind of experiment: Binding study in rabbit liver.

For test [3], the target named is T3, beta 2 adrenergic receptors (Cavia porcellus, UniProt Q8K4Z4).
T3 construct: from tissue; host or cells: guinea pig trachea strips pre-contracted with carbachol
T3 sequence (Q8K4Z4 whole entry): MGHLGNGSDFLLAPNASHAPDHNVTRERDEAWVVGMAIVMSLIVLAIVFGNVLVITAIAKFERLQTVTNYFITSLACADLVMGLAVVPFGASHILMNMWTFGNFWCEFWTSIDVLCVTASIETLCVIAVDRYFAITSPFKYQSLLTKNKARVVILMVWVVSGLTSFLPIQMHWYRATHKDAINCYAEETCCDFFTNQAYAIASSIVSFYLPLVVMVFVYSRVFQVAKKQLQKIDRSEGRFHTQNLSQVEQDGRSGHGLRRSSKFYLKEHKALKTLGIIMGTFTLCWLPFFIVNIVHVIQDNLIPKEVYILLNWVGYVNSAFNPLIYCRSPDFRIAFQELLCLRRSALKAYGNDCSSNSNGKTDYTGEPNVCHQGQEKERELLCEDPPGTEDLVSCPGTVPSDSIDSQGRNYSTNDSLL
As to the kind of experiment: Salbutamol relaxation of cobaio trachea pre-contracted with carbacol. As to conditions: salbutamol 10^−10-3.3×10^−5 M, strips pre-contracted with carbacol 10 microM, n=4. The format is cell-based, guinea pig.
From the text: as §1, §2, §3, §4
In another experiment the compound was evaluated for its capability to inhibit the relaxation produced by salbutamol (10^−10-3.3×10^−5 M), beta 2 adrenergic agonist, in strips of cobaio trachea pre-contracted with carbacol (10 microM).

`COc1ccccc1N1CCN(CCc2ccc3c(c2)OCO3)CC1` [LASSBio 772, 1-(2-1,3-Benzodioxol-5-yl-ethyl)-4-(2-methoxy-phenyl)-piperazine]: in test [1], the “selectivity index for alpha 1D in comparison to alpha 1B subtype” value was at least 10000. The Kb in test [1] (pKB, rat aorta, α1D) was 0.0132 nM and 0.0138 nM. The “affinity for alpha 1D subtype relative to BMY 7378” value in test [1] (rat aorta) is given as at least 430 times. Besides, the “inhibition of carbacol-induced contractions” value in test [2] is given as “not able to significantly inhibit the contractions; also recorded: did not present any activity”. In addition, in test [2] (n=3), the “% of Contraction” value was determined as 122.1±8.6%. At α1A, the IC50 (commonly the concentration that gives 50% inhibition) was 4.9 nM. In addition, in test [3], the “inhibition of the relaxation produced by salbutamol” value is “not able to inhibit significantly the relaxing effect of salbutamol; also recorded: did not present any activity”.
